This is an account of results in patent US8524745B2 (Allergan, Inc., priority 2011, dated 2013).

For the assay, the target named is T1, CCR2 (Homo sapiens, UniProt P41597).
T1 construct: expressed in transfected cells
T1 sequence (P41597 whole entry, species assumed): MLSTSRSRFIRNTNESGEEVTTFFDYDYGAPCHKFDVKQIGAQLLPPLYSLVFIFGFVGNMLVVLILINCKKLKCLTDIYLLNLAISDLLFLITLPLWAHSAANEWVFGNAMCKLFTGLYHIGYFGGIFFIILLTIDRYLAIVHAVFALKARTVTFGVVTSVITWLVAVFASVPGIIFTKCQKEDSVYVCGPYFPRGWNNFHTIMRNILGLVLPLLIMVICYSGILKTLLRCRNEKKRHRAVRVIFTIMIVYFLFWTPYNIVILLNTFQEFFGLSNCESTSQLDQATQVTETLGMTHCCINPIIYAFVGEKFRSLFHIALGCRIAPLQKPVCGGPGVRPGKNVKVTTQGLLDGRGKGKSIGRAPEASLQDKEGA
Briefly: CCR2 calcium activity assay on FLIPR Tetra in HEK-Gqi5 cells stably expressing CCR2. Format: cell-based.
Consider `COc1ccc(S(=O)(=O)Nc2ccc(Cl)cc2NS(=O)(=O)c2ccc3c(c2)c(=O)sn3C)cc1OC` [N-(5-chloro-2-{[(3,4-dimethoxyphenyl)sulfonyl]amino}phenyl)-1-methyl-3-oxo-1,3-dihydro-2,1-benzisothiazole-5-sulfonamide], for which the “CCR2 % ANTAG” value is 93% and the half-inhibitory concentration (IC50) (commonly the point on the concentration scale where inhibition reaches its midpoint) was 1020 nM. Turning to `Cn1sc(=O)c2cc(S(=O)(=O)Nc3cc(Cl)ccc3NS(=O)(=O)c3cc(Cl)cc(Cl)c3)ccc21` [N-(5-chloro-2-{[(3,5-dichlorophenyl)sulfonyl]amino}phenyl)-1-methyl-3-oxo-1,3-dihydro-2,1-benzisothiazole-5-sulfonamide], the “CCR2 % ANTAG” value is 94% and the IC50 came to 2600 nM. For `Cn1sc(=O)c2cc(S(=O)(=O)Nc3cc(Cl)ccc3NS(=O)(=O)c3cccc(Cl)c3)ccc21` [N-(5-chloro-2-{[(3-chlorophenyl)sulfonyl]amino}phenyl)-1-methyl-3-oxo-1,3-dihydro-2,1-benzisothiazole-5-sulfonamide] the same measures were 91% and 493 nM. For `COc1cccc(S(=O)(=O)Nc2ccc(Cl)cc2NS(=O)(=O)c2ccc3c(c2)c(=O)sn3C)c1` [N-(5-chloro-2-{[(3-methoxyphenyl)sulfonyl]amino}phenyl)-1-methyl-3-oxo-1,3-dihydro-2,1-benzisothiazole-5-sulfonamide], the “CCR2 % ANTAG” value is on record as 83% and the IC50 was found to be 402 nM. Turning to `CCOc1ccc(S(=O)(=O)Nc2ccc(Cl)cc2NS(=O)(=O)c2ccc3c(c2)c(=O)sn3C)cc1` [N-(5-chloro-2-{[(4-ethoxyphenyl)sulfonyl]amino}phenyl)-1-methyl-3-oxo-1,3-dihydro-2,1-benzisothiazole-5-sulfonamide], the “CCR2 % ANTAG” value is 84% and the IC50 came out at 2790 nM. Take `Cn1sc(=O)c2cc(S(=O)(=O)Nc3cc(Cl)ccc3NS(=O)(=O)c3ccc(O)cc3)ccc21` [N-(5-chloro-2-{[(4-hydroxyphenyl)sulfonyl]amino}phenyl)-1-methyl-3-oxo-1,3-dihydro-2,1-benzisothiazole-5-sulfonamide]: the “CCR2 % ANTAG” value came out at 95% and the IC50 is 491 nM. In the case of `CC(C)Oc1ccc(S(=O)(=O)Nc2ccc(Cl)cc2NS(=O)(=O)c2ccc3c(c2)c(=O)sn3C)cc1` [N-(5-chloro-2-{[(4-isopropoxyphenyl)sulfonyl]amino}phenyl)-1-methyl-3-oxo-1,3-dihydro-2,1-benzisothiazole-5-sulfonamide], the “CCR2 % ANTAG” value is recorded as 72%. Regarding `CC(C)c1ccc(S(=O)(=O)Nc2ccc(Cl)cc2NS(=O)(=O)c2ccc3c(c2)c(=O)sn3C)cc1` [N-(5-chloro-2-{[(4-isopropylphenyl)sulfonyl]amino}phenyl)-1-methyl-3-oxo-1,3-dihydro-2,1-benzisothiazole-5-sulfonamide], the “CCR2 % ANTAG” value was 94% and the IC50 was 985 nM. As to `COc1ccc(S(=O)(=O)Nc2ccc(Cl)cc2NS(=O)(=O)c2ccc3c(c2)c(=O)sn3C)cc1` [N-(5-chloro-2-{[(4-methoxyphenyl)sulfonyl]amino}phenyl)-1-methyl-3-oxo-1,3-dihydro-2,1-benzisothiazole-5-sulfonamide], the “CCR2 % ANTAG” value worked out at 78% and the 50% inhibitory concentration (IC50) is 210 nM. For `Cc1ccc(S(=O)(=O)Nc2ccc(Cl)cc2NS(=O)(=O)c2ccc3c(c2)c(=O)sn3C)cc1` [N-(5-chloro-2-{[(4-methylphenyl)sulfonyl]amino}phenyl)-1-methyl-3-oxo-1,3-dihydro-2,1-benzisothiazole-5-sulfonamide] the same measures were 95% and 680 nM. Regarding `Cc1ccc(S(=O)(=O)Nc2ccc(Cl)cc2NS(=O)(=O)c2ccc3c(c2)c(=O)sn3C)s1` [N-(5-chloro-2-{[(5-methyl-2-thienyl)sulfonyl]amino}phenyl)-1-methyl-3-oxo-1,3-dihydro-2,1-benzisothiazole-5-sulfonamide], the “CCR2 % ANTAG” value came out at 95% and the IC50 was found to be 497 nM. In the case of `Cn1sc(=O)c2cc(S(=O)(=O)Nc3cc(Cl)cc4c3OCCO4)ccc21` [N-(7-chloro-2,3-dihydro-1,4-benzodioxin-5-yl)-1-methyl-3-oxo-1,3-dihydro-2,1-benzisothiazole-5-sulfonamide], the “CCR2 % ANTAG” value is reported as 63% and the IC50 turned out to be 1670 nM. As for `Cn1sc(=O)c2cc(S(=O)(=O)Nc3ccccc3NS(=O)(=O)c3cc(C(F)(F)F)cc(C(F)(F)F)c3)ccc21` [N-[2-({[3,5-bis(trifluoromethyl)phenyl]sulfonyl}amino)phenyl]-1-methyl-3-oxo-1,3-dihydro-2,1-benzisothiazole-5-sulfonamide], the “CCR2 % ANTAG” value is given as 94% and the IC50 was found to be 2070 nM. For `Cn1sc(=O)c2cc(S(=O)(=O)Nc3ccccc3NS(=O)(=O)c3ccc(Cl)c(C(F)(F)F)c3)ccc21` [N-[2-({[4-chloro-3-(trifluoromethyl)phenyl]sulfonyl}amino)phenyl]-1-methyl-3-oxo-1,3-dihydro-2,1-benzisothiazole-5-sulfonamide] the same measures were 100% and 412 nM.

Take `Cn1sc(=O)c2cc(S(=O)(=O)Nc3cc(Cl)c(Cl)cc3NS(=O)(=O)c3ccc(Cl)c(C(F)(F)F)c3)ccc21` [N-[4,5-dichloro-2-({[4-chloro-3-(trifluoromethyl)phenyl]sulfonyl}amino)phenyl]-1-methyl-3-oxo-1,3-dihydro-2,1-benzisothiazole-5-sulfonamide]: the “CCR2 % ANTAG” value is 84% and the half-inhibitory concentration (IC50) came out at 529 nM.

Turning to `CN(C)c1cccc(S(=O)(=O)Nc2ccc(Cl)cc2NS(=O)(=O)c2ccc3c(c2)c(=O)sn3C)c1` [N-[5-chloro-2-({[3-(dimethylamino)phenyl]sulfonyl}amino)phenyl]-1-methyl-3-oxo-1,3-dihydro-2,1-benzisothiazole-5-sulfonamide], the “CCR2 % ANTAG” value was found to be 69% and the IC50 turned out to be 678 nM. Take `CN(C)c1ccc(S(=O)(=O)Nc2ccc(Cl)cc2NS(=O)(=O)c2ccc3c(c2)c(=O)sn3C)cc1` [N-[5-chloro-2-({[4-(dimethylamino)phenyl]sulfonyl}amino)phenyl]-1-methyl-3-oxo-1,3-dihydro-2,1-benzisothiazole-5-sulfonamide]: the “CCR2 % ANTAG” value amounted to 64% and the IC50 came out at 1650 nM. For the compound `Cn1sc(=O)c2cc(S(=O)(=O)Nc3cc(Cl)ccc3NS(=O)(=O)c3ccc(Cl)c(C(F)(F)F)c3)ccc21` [N-[5-chloro-2-({[4-chloro-3-(trifluoromethyl)phenyl]sulfonyl}amino)phenyl]-1-methyl-3-oxo-1,3-dihydro-2,1-benzisothiazole-5-sulfonamide], the “CCR2 % ANTAG” value came to 88% and the IC50 is 240 nM. For `Cn1sc(=O)c2cc(S(=O)(=O)Nc3cccc4c3Oc3ccccc3O4)ccc21` [N-dibenzo[b,e][1,4]dioxin-1-yl-1-methyl-3-oxo-1,3-dihydro-2,1-benzisothiazole-5-sulfonamide] the same measures were 67% and 1460 nM. `Cn1sc(=O)c2cc(S(=O)(=O)NC(C)(C)CNS(=O)(=O)c3cccs3)ccc21` [N-{1,1-dimethyl-2-[(2-thienylsulfonyl)amino]ethyl}-1-methyl-3-oxo-1,3-dihydro-2,1-benzisothiazole-5-sulfonamide]: the “CCR2 % ANTAG” value turned out to be 20% and the IC50 was found to be 2490 nM. For `Cn1sc(=O)c2cc(S(=O)(=O)N3CCCC(NS(=O)(=O)c4cccs4)C3)ccc21` (stereo not drawn) [N-{1-[(1-methyl-3-oxo-1,3-dihydro-2,1-benzisothiazol-5-yl)sulfonyl]piperidin-3-yl}thiophene-2-sulfonamide], the “CCR2 % ANTAG” value is listed as 54%. For the compound `Cn1sc(=O)c2cc(S(=O)(=O)N3CCC(NS(=O)(=O)c4cccs4)C3)ccc21` (stereo not drawn) [N-{1-[(1-methyl-3-oxo-1,3-dihydro-2,1-benzisothiazol-5-yl)sulfonyl]pyrrolidin-3-yl}thiophene-2-sulfonamide], the “CCR2 % ANTAG” value turned out to be 44% and the concentration for half-maximal inhibition (IC50) stood at 2760 nM. For `Cn1sc(=O)c2cc(S(=O)(=O)Nc3ccccc3NS(=O)(=O)c3c[nH]cn3)ccc21` [N-{2-[(1H-imidazol-4-ylsulfonyl)amino]phenyl}-1-methyl-3-oxo-1,3-dihydro-2,1-benzisothiazole-5-sulfonamide] the same measures were 0% and > 8300 nM. For `Cn1sc(=O)c2cc(S(=O)(=O)Nc3ccccc3NS(=O)(=O)c3ccco3)ccc21` [N-{2-[(2-furylsulfonyl)amino]phenyl}-1-methyl-3-oxo-1,3-dihydro-2,1-benzisothiazole-5-sulfonamide] the same measures were 104% and 744 nM. As for `Cn1sc(=O)c2cc(S(=O)(=O)Nc3ccccc3NS(=O)(=O)c3ccoc3)ccc21` [N-{2-[(3-furylsulfonyl)amino]phenyl}-1-methyl-3-oxo-1,3-dihydro-2,1-benzisothiazole-5-sulfonamide], the “CCR2 % ANTAG” value came to 73%.

For `Cn1sc(=O)c2cc(S(=O)(=O)Nc3c(Cl)cccc3NS(=O)(=O)c3cccs3)ccc21` [N-{2-chloro-6-[(2-thienylsulfonyl)amino]phenyl}-1-methyl-3-oxo-1,3-dihydro-2,1-benzisothiazole-5-sulfonamide], the “CCR2 % ANTAG” value came to 106% and the IC50 stood at 468 nM. For `Cn1sc(=O)c2cc(S(=O)(=O)Nc3c(F)cccc3NS(=O)(=O)c3cccs3)ccc21` [N-{2-fluoro-6-[(2-thienylsulfonyl)amino]phenyl}-1-methyl-3-oxo-1,3-dihydro-2,1-benzisothiazole-5-sulfonamide] the same measures were 105% and 471 nM.

With `Cn1sc(=O)c2cc(S(=O)(=O)Nc3cccc(Cl)c3NS(=O)(=O)c3cccs3)ccc21` [N-{3-chloro-2-[(2-thienylsulfonyl)amino]phenyl}-1-methyl-3-oxo-1,3-dihydro-2,1-benzisothiazole-5-sulfonamide], the “CCR2 % ANTAG” value is on record as 100% and the IC50 was 823 nM.

For `COc1cccc(NS(=O)(=O)c2ccc3c(c2)c(=O)sn3C)c1NS(=O)(=O)c1cccs1` [N-{3-methoxy-2-[(2-thienylsulfonyl)amino]phenyl}-1-methyl-3-oxo-1,3-dihydro-2,1-benzisothiazole-5-sulfonamide], the “CCR2 % ANTAG” value was found to be 52%.
